Source: patent EP1210948B1, “THERAPEUTC PEPTIDE FOR NERVOUS DISEASES” (NIPPON CHEMIPHAR CO., LTD., priority 1999, dated 2007)
Where a SMILES comes first, the peptide text is derived from it.

Key:
[1] = Toxicity test, subcutaneous injection; type: in vivo
Experimental: pGlu-Asn-Ser-Pro-Arg-Gly-NH2 acetate was subcutaneously injected to a SD strain rat at a dose of 1 mg/kg.

[2] = test system: cells of rat cerebral cortex; assay: Action on glutamate-induced neurocyte disorder (in vitro), propidium iodide staining; type: cell-based; conditions: for inhibitory action against neuronal death induced by glutamate: 4 day treatment, glutamate 1 mM
Experimental: The cerebral cortex of rat (0-day-old) was incubated at 37°C in a Hank's solution containing 1.5 mg/mL of dispase, and then cells were isolated. The neurocytes were dispersed on a poly-L-lysine-coated multiple well plate at a density of approx. 4 x 10^4 cells/cm^2, and then to the plate was added cytosine-β-arabinofuranoside (20 µM). The nerocytes were cultured on the plate for 4 days.
The nerocytes were identified by indirect fluorescent method using a neuro-filament antibody
The cultured neurocytes were washed with a Hank's solution and further incubated at 37°C for 30 minutes under atmospheric conditions. Incubated neurocytes were again incubated for 10 minutes in a Hank's solution containing glutamate. Then, they were washed, and further incubated for one hour. At 15 minutes before the incubation was complete, propidium iodide (4.6 µg/mL) was added. After the incubations were complete, the incubated neurocytes were washed with PBS (phosphate buffer solution containing sodium chloride), and then observed using fluorescence microscope.
The pGlu-Asn-Ser-Pro-Arg-Gly-NH2 acetate or AVP(4-9) was added to the 4 day-cultured solution prior to the glutamate treatment.

For `N=C(N)NCCC[C@H](NC(=O)[C@@H]1CCCN1C(=O)[C@H](CO)NC(=O)[C@H](CC(N)=O)NC(=O)[C@@H]1CCC(=O)N1)C(=O)NCC(N)=O` [pGlu-Asn-Ser-Pro-Arg-Gly-NH2] (HELM PEPTIDE1{[Glp].N.S.P.R.G.[am]}$$$$V2.0), the “toxicity in the conventional toxicity test” value ([1]; summary statement) was “no specific toxicity”.
With `N=C(N)NCCC[C@H](NC(=O)[C@@H]1CCCN1C(=O)[C@H](CO)NC(=O)[C@H](CC(N)=O)NC(=O)[C@@H]1CCC(=O)N1)C(=O)NCC(N)=O` [pGlu-Asn-Ser-Pro-Arg-Gly-NH2 acetate] (HELM PEPTIDE1{[Glp].N.S.P.R.G.[am]}$$$$V2.0) the “inhibitory action against neuronal death induced by glutamate” value ([2]; 0.1 nM test substance) was “showed an inhibitory action”, the “inhibitory action against neuronal death induced by glutamate” value ([2]; 1 nM test substance) was “showed an inhibitory action” and the “inhibitory action against glutamate toxicity in the presence of V1 receptor antagonist [Pmp^1, Tyr(Me)^2]AVP” value ([2]; [Pmp^1, Tyr(Me)^2]AVP 0.1 nM) was “reduced”. The “inhibitory action against glutamate toxicity in the presence of V1 receptor antagonist [Pmp^1, Tyr(Me)^2]AVP” value ([2]; [Pmp^1, Tyr(Me)^2]AVP 1 nM) was “reduced” and the “changes observed after subcutaneous injection” value ([1]; rat, in vivo, sc, 1 mg/kg) was “No noticeable changes were observed”.
With “[pGlu^4, Cyt^5] AVP (4-9) [AVP(4-9), reference compound]” the “inhibition of the glutamate-induced neuronal death” value ([2]; 1 µM test substance) was “inhibited” and the “inhibition of the glutamate-induced neuronal death” value ([2]; 10 µM test substance) was “inhibited”.
